A short description of experiment [1]: The receptor binding activity was evaluated as the displacement of specifically bound [3H]-NPY from male Sprague-Dawley rat brain membrane homogenates. Format: tissue-based.
The species entered for experiment [2] is Rattus norvegicus. Description: Inhibitory concentration was evaluated against the vasoconstriction induced by NPY in the rat femoral artery ring. Format: functional.
A short description of experiment [3]: Percent maximum displacement of the [3H]NPY by the compound in the rat brain membrane was evaluated. Format: cell membranes.
Experiment [4] in a line: Inhibition constant to displace [3H]-NPY from rat brain membrane after treatment with 500 evaluated. Format: tissue-based.
Experiment [5] can be described thus: The receptor binding activity as the displacement of specifically bound [3H]-NPY from male Sprague-Dawley rat brain membrane homogenates. It is filed as tissue-based.

Data on three compounds can be found in ChEMBL document CHEMBL1126370, “Neuropeptide Y (NPY) functional group mimetics: design, synthesis, and characterization as NPY receptor antagonists” (Bioorg Med Chem Lett, 1992).

A word on the IC50: it is the midpoint of a concentration-inhibition curve. Low readings indicate higher potency, high ones lower potency. As a reminder, the Ki is the equilibrium dissociation constant of an inhibitor or competing ligand from its target. A high value points to lower affinity.

Regarding `N/C(=N\CCNC(=O)C(N)Cc1ccc(OCc2c(Cl)cccc2Cl)cc1)NCCSSCCN/C(N)=N/CCNC(=O)C(N)Cc1ccc(OCc2c(Cl)cccc2Cl)cc1` (stereo not given), the IC50 in experiment [1] is 18.5 µM; in experiment [2], 0.414 µM. Also, the Max displacement in experiment [3] came to 63%.
`N/C(=N\CCNC(=O)C(N)Cc1ccc(OCc2c(Cl)cccc2Cl)cc1)NCCCCCCN/C(N)=N/CCNC(=O)C(N)Cc1ccc(OCc2c(Cl)cccc2Cl)cc1` (stereo not given): the IC50 in experiment [1] was 45.4 µM; in experiment [2], 2.86 µM. The compound further showed a Ki in experiment [4] of 35.5 µM. The compound also displayed a Max displacement in experiment [3] of 100%.
As to `COc1ccccc1CNCCCCCCNCCSSCCNCCCCCCNCc1ccccc1OC` [BENEXTRAMINE], the IC50 was 56 µM in experiment [5] and 0.0431 µM in experiment [2]. In experiment [3], the Max displacement worked out at 61%.
